Measurements reported in patent US20230295119A1, “SUBSTITUTED PYRIDINES FOR THE TREATMENT OF INFLAMMATORY DISEASES” (GOSSAMER BIO SERVICES, INC., priority 2020, published 2023).

Experiments:
TYK2 JH2 domain = TYK2 JH2 domain (Homo sapiens (Human), UniProt P29597); assay: TYK2 JH2 NanoBRET assay; type: binding; details: Table 20, read-out: TYK2 IC50
Experimental: HEK293T cells were transfected with NanoLuc-TYK2 JH2 Fusion Vector (Promega, customized) using Trans-IT reagent (Mirus, #MIR2700) and incubated for overnight in 37° C. incubator. […] Add 85 µL of cell suspension into white, polypropylene, 96-well plates (Corning, #3600). 90 µL of cells were used for no tracer control samples. 5 µL of diluted NanoBRET K10 tracer (Promega, #CS1810C122) were added to cells to a final concentration of 0.5 µM. Test compounds were diluted into DMSO, and then phenol-free opti-MEM to 10X of final concentration. 10 µL of diluted compounds were added into each well. The cells were incubated with test compound and tracer for 2 hours. 3XNanoBRET® Nano-Glo® Substrate and Extracellular NanoLuc® Inhibitor mixture were prepared and 50 µL of the mixture were added into the wells and mixed. […] NanoBRET signal was determined by using the ratio of acceptor signal and donor signal.

human JAK2 = human JAK2 (Homo sapiens (Human), UniProt O60674); assay: JAK2 TR-FRET kinase assay; type: biochemical; details: JAK2 0.025 nM
human JAK3 = human JAK3 (Homo sapiens (Human), UniProt P52333); assay: JAK3 TR-FRET kinase assay; type: biochemical; details: JAK3 0.0125 nM
human JAK1 = human JAK1 (Homo sapiens (Human), UniProt P23458); assay: JAK1 TR-FRET kinase assay; type: biochemical; details: TR-FRET, JAK1 2.5 nM
human JAK1, sequence (P23458 whole entry): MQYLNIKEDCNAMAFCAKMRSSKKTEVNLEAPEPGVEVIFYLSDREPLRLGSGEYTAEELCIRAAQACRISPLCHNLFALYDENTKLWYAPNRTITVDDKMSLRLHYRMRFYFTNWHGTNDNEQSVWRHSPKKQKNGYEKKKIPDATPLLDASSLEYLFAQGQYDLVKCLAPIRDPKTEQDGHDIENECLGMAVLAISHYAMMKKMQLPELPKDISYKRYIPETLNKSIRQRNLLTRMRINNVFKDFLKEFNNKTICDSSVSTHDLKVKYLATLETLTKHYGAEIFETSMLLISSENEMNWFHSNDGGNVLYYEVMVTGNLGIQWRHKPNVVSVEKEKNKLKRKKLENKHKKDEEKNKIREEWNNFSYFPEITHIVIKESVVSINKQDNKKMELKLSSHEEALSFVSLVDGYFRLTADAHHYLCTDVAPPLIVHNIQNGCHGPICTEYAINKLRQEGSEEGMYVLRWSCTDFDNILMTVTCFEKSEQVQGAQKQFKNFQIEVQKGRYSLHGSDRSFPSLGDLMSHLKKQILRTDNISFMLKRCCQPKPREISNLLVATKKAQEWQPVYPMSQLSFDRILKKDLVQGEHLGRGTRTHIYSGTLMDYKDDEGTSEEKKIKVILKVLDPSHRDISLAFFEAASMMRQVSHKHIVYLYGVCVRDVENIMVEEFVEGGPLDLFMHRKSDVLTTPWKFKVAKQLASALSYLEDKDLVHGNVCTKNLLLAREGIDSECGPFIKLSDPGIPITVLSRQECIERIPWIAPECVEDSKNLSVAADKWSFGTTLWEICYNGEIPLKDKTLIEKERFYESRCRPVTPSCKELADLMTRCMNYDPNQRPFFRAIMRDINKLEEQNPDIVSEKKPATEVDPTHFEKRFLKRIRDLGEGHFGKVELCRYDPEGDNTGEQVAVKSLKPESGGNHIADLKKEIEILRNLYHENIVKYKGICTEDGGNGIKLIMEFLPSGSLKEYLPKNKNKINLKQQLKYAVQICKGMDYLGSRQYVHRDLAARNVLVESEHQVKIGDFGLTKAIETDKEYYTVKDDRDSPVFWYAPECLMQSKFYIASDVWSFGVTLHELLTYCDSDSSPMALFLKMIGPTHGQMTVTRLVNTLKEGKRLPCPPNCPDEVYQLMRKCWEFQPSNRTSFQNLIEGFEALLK

human JAK3, sequence (P52333 whole entry): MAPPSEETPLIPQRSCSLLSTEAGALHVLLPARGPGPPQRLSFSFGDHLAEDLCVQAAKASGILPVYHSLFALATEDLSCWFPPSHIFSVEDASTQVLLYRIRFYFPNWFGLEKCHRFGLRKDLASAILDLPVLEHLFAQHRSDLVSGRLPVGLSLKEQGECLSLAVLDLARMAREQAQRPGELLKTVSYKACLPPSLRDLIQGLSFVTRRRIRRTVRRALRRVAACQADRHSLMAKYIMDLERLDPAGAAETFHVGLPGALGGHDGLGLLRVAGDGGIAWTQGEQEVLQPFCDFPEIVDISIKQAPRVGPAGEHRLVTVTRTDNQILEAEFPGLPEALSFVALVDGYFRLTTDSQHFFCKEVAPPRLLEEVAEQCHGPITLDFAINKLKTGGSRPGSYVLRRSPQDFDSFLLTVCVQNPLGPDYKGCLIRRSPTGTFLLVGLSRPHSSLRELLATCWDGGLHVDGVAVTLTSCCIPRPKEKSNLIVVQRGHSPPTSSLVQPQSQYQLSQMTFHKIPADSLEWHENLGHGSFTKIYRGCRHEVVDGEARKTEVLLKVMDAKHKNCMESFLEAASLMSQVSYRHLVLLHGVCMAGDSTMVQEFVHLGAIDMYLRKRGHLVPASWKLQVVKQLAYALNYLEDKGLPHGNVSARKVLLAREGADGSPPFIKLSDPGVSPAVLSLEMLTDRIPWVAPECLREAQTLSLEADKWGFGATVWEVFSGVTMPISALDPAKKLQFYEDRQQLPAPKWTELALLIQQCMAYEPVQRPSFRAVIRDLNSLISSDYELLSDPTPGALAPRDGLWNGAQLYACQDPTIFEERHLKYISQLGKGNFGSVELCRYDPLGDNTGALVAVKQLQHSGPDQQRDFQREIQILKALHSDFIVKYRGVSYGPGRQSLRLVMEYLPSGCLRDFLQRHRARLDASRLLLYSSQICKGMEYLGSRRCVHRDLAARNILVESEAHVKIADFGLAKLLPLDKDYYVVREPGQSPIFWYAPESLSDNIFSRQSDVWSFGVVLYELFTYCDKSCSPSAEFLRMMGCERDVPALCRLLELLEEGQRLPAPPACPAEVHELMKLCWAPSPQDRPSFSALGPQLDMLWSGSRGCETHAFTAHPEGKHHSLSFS
human JAK2, sequence (O60674 whole entry): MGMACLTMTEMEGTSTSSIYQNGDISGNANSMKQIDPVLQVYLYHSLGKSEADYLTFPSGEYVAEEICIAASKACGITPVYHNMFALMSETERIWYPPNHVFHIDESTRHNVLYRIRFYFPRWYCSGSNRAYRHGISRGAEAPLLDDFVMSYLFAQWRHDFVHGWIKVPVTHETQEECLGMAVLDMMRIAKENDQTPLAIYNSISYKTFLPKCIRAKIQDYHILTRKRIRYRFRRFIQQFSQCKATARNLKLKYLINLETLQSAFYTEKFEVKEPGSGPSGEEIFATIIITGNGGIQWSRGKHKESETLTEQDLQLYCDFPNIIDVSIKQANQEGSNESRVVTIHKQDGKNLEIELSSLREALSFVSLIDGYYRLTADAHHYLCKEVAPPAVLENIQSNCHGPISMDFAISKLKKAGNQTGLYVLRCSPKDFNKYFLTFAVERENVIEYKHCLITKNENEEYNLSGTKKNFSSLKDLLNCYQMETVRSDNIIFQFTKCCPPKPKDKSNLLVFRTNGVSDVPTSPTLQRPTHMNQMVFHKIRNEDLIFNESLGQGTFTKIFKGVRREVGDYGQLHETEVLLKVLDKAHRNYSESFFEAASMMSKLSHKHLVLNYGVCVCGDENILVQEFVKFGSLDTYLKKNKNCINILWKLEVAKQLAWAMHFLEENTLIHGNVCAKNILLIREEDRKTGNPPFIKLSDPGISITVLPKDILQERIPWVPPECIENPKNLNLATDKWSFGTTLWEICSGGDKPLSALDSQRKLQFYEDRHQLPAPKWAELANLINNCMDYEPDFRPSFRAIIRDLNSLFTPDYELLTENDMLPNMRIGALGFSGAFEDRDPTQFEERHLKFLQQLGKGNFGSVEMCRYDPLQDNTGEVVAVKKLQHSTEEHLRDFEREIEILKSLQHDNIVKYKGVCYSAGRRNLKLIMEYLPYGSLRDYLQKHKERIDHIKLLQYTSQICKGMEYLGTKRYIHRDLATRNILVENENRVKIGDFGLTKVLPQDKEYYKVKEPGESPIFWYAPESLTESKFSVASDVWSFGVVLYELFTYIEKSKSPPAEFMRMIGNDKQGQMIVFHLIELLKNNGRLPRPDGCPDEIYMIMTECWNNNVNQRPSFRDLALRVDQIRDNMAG
TYK2 JH2 domain, sequence (P29597 589-875): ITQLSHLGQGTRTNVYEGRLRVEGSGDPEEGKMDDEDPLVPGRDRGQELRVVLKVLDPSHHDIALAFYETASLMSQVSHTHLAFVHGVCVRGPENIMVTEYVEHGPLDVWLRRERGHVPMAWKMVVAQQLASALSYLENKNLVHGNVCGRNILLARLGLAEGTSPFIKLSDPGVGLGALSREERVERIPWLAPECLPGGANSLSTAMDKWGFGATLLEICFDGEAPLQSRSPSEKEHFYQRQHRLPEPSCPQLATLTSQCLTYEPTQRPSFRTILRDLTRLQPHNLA

Row | IC50 (TYK2 JH2 domain) [nM] | IC50 (human JAK2) [nM] | IC50 (human JAK3) [nM] | IC50 (human JAK1) [nM] | Compound
1 | ≥ 500 | ≥ 500 | ≥ 500 | ≥ 500 | CCC(=O)c1cnc(NC(=O)[C@@H]2C[C@H]2CC#N)cc1Nc1cccc(-c2ncn(C)n2)c1OC [Compound 22L]
2 | < 5 | ≥ 500 | ≥ 500 | ≥ 500 | CCC(=O)c1cnc(Nc2ccc(OCCCN3CCCC3)nn2)cc1Nc1cccc(-c2ncn(C)n2)c1OC [Compound 18DD]
3 | < 5 | ≥ 500 | ≥ 500 | ≥ 500 | CCC(=O)c1cnc(Nc2ccc(CN(C)C3COC3)cn2)cc1Nc1cccc(-c2ncn(C)n2)c1OC [Compound 9DDD]
4 | < 5 | 50 to 500 | 50 to 500 | ≥ 500 | CCC(=O)c1cnc(Nc2ccc(OCC3COC3)cn2)cc1Nc1cccc(-c2ncn(C)n2)c1OC [Compound 18AA]
5 | ≥ 500 | ≥ 500 | ≥ 500 | ≥ 500 | CCC(=O)c1cnc(NC(=O)[C@@H]2C[C@H]2C(N)=O)cc1Nc1cccc(-c2ncn(C)n2)c1OC [Compound 22E]
6 | 5 to 50 | ≥ 500 | ≥ 500 | ≥ 500 | CCO[C@H]1C[C@@H](n2ccc(Nc3cc(Nc4cccc(-c5ncn(C)n5)c4OC)c(C(=O)CC)cn3)n2)C1 [Compound 21CC]
7 | 5 to 50 | ≥ 500 | ≥ 500 | ≥ 500 | [2H]C([2H])([2H])N1CC[C@@H](Oc2cnc(Nc3cc(Nc4cccc(-c5ncn(C)n5)c4OC)c(C(=O)CC)cn3)cn2)C1 [Compound 18NNN]
8 | 5 to 50 | ≥ 500 | ≥ 500 | ≥ 500 | COc1c(-c2ncn(C)n2)ccnc1Nc1cc(Nc2ccc(-c3cn(C)cn3)cn2)ncc1C(=O)C1CC1 [Compound 15L]
9 | 5 to 50 | ≥ 500 | ≥ 500 | ≥ 500 | CCC(=O)c1cnc(Nc2ccc(S(C)(=O)=O)cn2)cc1Nc1cccc(COC)c1OC [Compound 13R]
10 | ≥ 500 | ≥ 500 | ≥ 500 | ≥ 500 | CCC(=O)c1cnc(NC(=O)[C@@H]2C[C@H]2NC(C)=O)cc1Nc1cccc(-c2ncn(C)n2)c1OC [Compound 22I]
11 | 5 to 50 | ≥ 500 | ≥ 500 | ≥ 500 | CCC(=O)c1cnc(Nc2ccnc(O[C@H]3CCN(C)C3)n2)cc1Nc1cccc(-c2ncn(C)n2)c1OC [Compound 18KK]
12 | < 5 | ≥ 500 | ≥ 500 | ≥ 500 | CCC(=O)c1cnc(Nc2ccc(-n3ccnc3)cn2)cc1Nc1nccc(-c2ncn(C)n2)c1OC [Compound 15P]
13 | 5 to 50 | ≥ 500 | ≥ 500 | ≥ 500 | CCC(=O)c1cnc(Nc2ccc(OC(CO)CO)cn2)cc1Nc1cccc(-c2ncn(C)n2)c1OC [Compound 18H]
14 | 5 to 50 | ≥ 500 | ≥ 500 | ≥ 500 | CCC(=O)c1cnc(Nc2ccc(C(C)(C)N(C)C)nn2)cc1Nc1cccc(-c2ncn(C)n2)c1OC [Compound 9NNN]
15 | ≥ 500 | ≥ 500 | ≥ 500 | ≥ 500 | CCC(=O)c1cnc(NC(=O)[C@@H]2C[C@@H]2NC(=O)OC(C)(C)C)cc1Nc1cccc(-c2ncn(C)n2)c1OC [Compound 22J]
16 | ≥ 500 | ≥ 500 | ≥ 500 | ≥ 500 | CCC(=O)c1cnc(Nc2cc(C(=O)O)ccn2)cc1Nc1cccc(-c2ncn(C)n2)c1OC [Compound 8E]
17 | 5 to 50 | ≥ 500 | ≥ 500 | ≥ 500 | CCC(=O)c1cnc(Nc2csc(CN3CCCC3)n2)cc1Nc1cccc(-c2ncn(C)n2)c1OC [Compound 21F]
18 | 5 to 50 | ≥ 500 | ≥ 500 | ≥ 500 | CCC(=O)c1cnc(Nc2cnc(C(NC)C(F)(F)F)cn2)cc1Nc1cccc(-c2ncn(C)n2)c1OC (stereo not shown) [Compound 9UUU]
19 | 50 to 500 | ≥ 500 | ≥ 500 | ≥ 500 | CCC(=O)c1cnc(Nc2nc(CN(C)C)ccc2F)cc1Nc1cccc(-c2ncn(C)n2)c1OC [Compound 9UUUU]

Row | IC50 (TYK2 JH2 domain) [nM] | IC50 (human JAK2) [nM] | IC50 (human JAK3) [nM] | IC50 (human JAK1) [nM] | Compound
20 | 50 to 500 | ≥ 500 | ≥ 500 | ≥ 500 | CCC(=O)c1cnc(NC(=O)[C@@H]2C[C@H]2CS(C)(=O)=O)cc1Nc1cccc(-c2ncn(C)n2)c1OC [Compound 22N]
21 | 50 to 500 | ≥ 500 | ≥ 500 | ≥ 500 | CCC(=O)c1cnc(NC(=O)CCCN2CCCC2)cc1Nc1cccc(-c2ncn(C)n2)c1OC [Compound 23E]
22 | 5 to 50 | 50 to 500 | 50 to 500 | ≥ 500 | CCC(=O)c1cnc(Nc2ccc(-n3ccnc(C)c3=O)cn2)cc1Nc1cccc(-c2ncn(C)n2)c1OC [Compound 15X]
23 | < 5 | ≥ 500 | ≥ 500 | ≥ 500 | CCC(=O)c1cnc(Nc2ccc(S(=O)(=O)CC)cn2)cc1Nc1cccc(-c2ncn(C)n2)c1OC [Compound 13G]
24 | 5 to 50 | ≥ 500 | ≥ 500 | ≥ 500 | CCC(=O)c1cnc(Nc2cc(CNC)ncn2)cc1Nc1cccc(-c2ncn(C)n2)c1OC [Compound 9MMMM]
25 | < 5 | 50 to 500 | ≥ 500 | ≥ 500 | CCC(=O)c1cnc(Nc2ccc(CS(C)(=O)=O)cn2)cc1Nc1nccc(-c2ncn(C)n2)c1OC [Compound 13M]
26 | 50 to 500 | 50 to 500 | 50 to 500 | ≥ 500 | CCC(=O)c1cnc(Nc2ccc(S(C)(=O)=O)cn2)cc1Nc1ccc(C(=O)N2CCCC2)cc1OC [Compound 13W]
27 | < 5 | ≥ 500 | ≥ 500 | ≥ 500 | CCC(=O)c1cnc(Nc2ccc([C@@H](C)N3CC[C@H](O)C3)cn2)cc1Nc1cccc(-c2ncn(C)n2)c1OC [Compound 9MM]
28 | 5 to 50 | ≥ 500 | ≥ 500 | ≥ 500 | CCC(=O)c1cnc(Nc2cccc(CN3CCCCC3)n2)cc1Nc1cccc(-c2ncn(C)n2)c1OC [Compound 9GGGG]
29 | < 5 | ≥ 500 | 50 to 500 | ≥ 500 | CCC(=O)c1cnc(Nc2cc(CCN3CCCC3)ncn2)cc1Nc1cccc(-c2ncn(C)n2)c1OC [Compound 11G]
30 | 5 to 50 | ≥ 500 | ≥ 500 | ≥ 500 | CCC(=O)c1cnc(Nc2ccnc(OC3CN(C)C3)n2)cc1Nc1cccc(-c2ncn(C)n2)c1OC [Compound 18JJ]
31 | < 5 | ≥ 500 | ≥ 500 | ≥ 500 | CCC(=O)c1cnc(Nc2cc(-c3cn(C)cn3)ccn2)cc1Nc1cccc(-c2ncn(C)n2)c1OC [Compound 15E]
32 | 5 to 50 | ≥ 500 | ≥ 500 | ≥ 500 | CCC(=O)c1cnc(Nc2cnc(O[C@H]3CN[C@@H](C(F)F)C3)cn2)cc1Nc1cccc(-c2ncn(C)n2)c1OC [Compound 18000]
33 | ≥ 500 | ≥ 500 | ≥ 500 | ≥ 500 | CCC(=O)c1cnc(NC(=O)[C@@H]2C[C@@H]2NC(C)=O)cc1Nc1cccc(-c2ncn(C)n2)c1OC [Compound 22K]
34 | < 5 | ≥ 500 | ≥ 500 | ≥ 500 | CCC(=O)c1cnc(Nc2cnc(OC3CCN(C)CC3)cn2)cc1Nc1cccc(-c2ncn(C)n2)c1OC [Compound 18EEE]
35 | < 5 | ≥ 500 | ≥ 500 | ≥ 500 | CCC(=O)c1cnc(Nc2ccc(CN3CC4(CCOC4)C3)cn2)cc1Nc1cccc(-c2ncn(C)n2)c1OC [Compound 9CCC]
36 | 5 to 50 | ≥ 500 | ≥ 500 | ≥ 500 | COc1c(Nc2cc(Nc3ccc(OC[C@@H](O)CO)cn3)ncc2C(=O)C2CC2)cccc1-c1ncn(C)n1 [Compound 18I]
37 | < 5 | ≥ 500 | 50 to 500 | ≥ 500 | CCC(=O)c1cnc(Nc2ccc(O[C@@H]3CCN(C)C3)cn2)cc1Nc1cccc(-c2ncn(C)n2)c1OC [Compound 18V]
38 | 5 to 50 | ≥ 500 | ≥ 500 | ≥ 500 | CCC(=O)c1cnc(Nc2cnc(CN(C)CC(F)F)cn2)cc1Nc1cccc(-c2ncn(C)n2)c1OC [Compound 9WWW]

Row | Compound | IC50 (TYK2 JH2 domain) [nM] | IC50 (human JAK2) [nM] | IC50 (human JAK3) [nM] | IC50 (human JAK1) [nM]
39 | CCC(=O)c1cnc(Nc2ccc(S(C)(=N)=O)cn2)cc1Nc1cccc(-c2ncn(C)n2)c1OC (stereo not shown) [Compound 14A, imino(6-((4-((2-methoxy-3-(1-methyl-1H-1,2,4-triazol-3-yl)phenyl)amino)-5-propionylpyridin-2-yl)amino)pyridin-3-yl)(methyl)-16-sulfanone] | < 5 | ≥ 500 | ≥ 500 | ≥ 500
40 | CCC(=O)c1cnc(Nc2ccc(CCN(C)C)cn2)cc1Nc1cccc(-c2ncn(C)n2)c1OC [Compound 11A, 1-(6-((5-(2-(dimethylamino)ethyl)pyridin-2-yl)amino)-4-((2-methoxy-3-(1-methyl-1H-1,2,4-triazol-3-yl)phenyl)amino)pyridin-3-yl)propan-1-one] | < 5 | ≥ 500 | ≥ 500 | ≥ 500
